From patent publication US20170333393A1, “INJECTABLE ANTIOXIDANT FORMULATION FOR INTRAVENOUS USE OF SODIUM ASCORBATE IN HIGH DOSAGE, N-ACETYL CYSTEINE, AND DEFEROXAMINE; METHOD OF ADMINISTRATION AND USE FOR PREVENTING INJURY DUE TO REPERFUSION; AND KIT” (UNIVERSIDAD DE CHILE, priority 2014, published 2017)

Assays:
isolated rat hearts = assay: Langendorff isolated heart model, ischemia/reperfusion; recovery of contractibility; set-up: species or system Sprague-Dawley rat; settings: 30 min regional ischemia, 60 min reperfusion; N-acetyl cysteine 36.8 mmol/L, deferoxamine 3.9 mmol/L; N=3 rats per group
Source text: Laboratory trials in murine model, by means of the use of the Langendorff isolated heart model, allowed to preliminarily establish the contribution of the secondary components of the solution in isolated form, in conjunction and in tri-association with sodium ascorbate on the attenuation of lethal reperfusion by means of the evaluation of the percentage of recovery of contractibility, subsequent to the reestablishment of the blood flow, […]
Sprague-Dawley adult male rats (250 to 300 g) were anesthetized with pentobarbital (80 mg/kg IP). Heparine (100 U/kg IV) was administered and the hearts were rapidly extracted and perfused with Krebs-Henseleit solution oxygenated in a Langendorff perfusion system at 37° C. […] The ventricular pressure was measured with a latex balloon inserted, in the left ventricular and connected to a pressure transductor. […]
Evaluation of the injury: The capacity was measured of both components isolated, in conjunction and in tri-association with sodium ascorbate in high dosage, in order to recover the cardiac contractibility, loss associated to the injury due to reperfusion.
For the analysis of the results parametric statistic of the continuous variables was used, expressing the position in terms of arithmetic mean and dispersion based on the standard deviation. The differences between multiple groups were analysed by means of ANOVA with Bonferroni test as Post-Hoc. […]

[1] = system: patients diagnosed with acute myocardium infarction with indication of primary angioplasty; assay: PREVEC Phase II randomized, double blind, placebo controlled clinical trial; left ventricular ejection fraction by cardiac magnetic resonance; format: in vivo, human
Procedure: In a group of 50 patients subjected to a primary angioplasty due to acute infarction diagnosis, treated only with massive dosage of sodium ascorbate (equivalent dosage to the one used in the three component formulation), a recovery was observed that has never before been reported of the cardiac function in a medium term, only referable to an attenuation of the late effects of the injury due to reperfusion. The evaluation was carried out by means of cardiac magnetic resonance, technique considered the present gold standard for this kind of studies.
A randomized, double blind, placebo controlled clinical trial was applied to patients diagnosed with acute myocardium infarction with indication of primary angioplasty, previously enrolled.
As inclusion criteria, was defined: Individuals of any sex older than 18 years of age; Latency of admission of up to 12 hours since presenting symptoms; First myocardium infarction; Killip 1 and 2; Capacity and willingness to sign consent form.
As exclusion criteria was established: Renal or hepathic insufficiency history; Cardiac failure history (NYHA III, IV); Cardiogenic shock; Comorbility that determines a life expectancy<6 months; Participation in another investigation; Pregnancy; Glucose 6—Phosphate Dehydrogenase deficiency.
Patients were administered an oral dose of vitamin E (800 IU), followed by a sodium ascorbate infusion (320 mmol/L). The placebo group received an inert infusion of sodium chloride solution of the same osmolarity as the sodium ascorbate infusion. Serial blood samples were taken to analyse biomarkers related to myocardium, injury, oxidative stress and inflammation in order to evaluated efficiency on injury due to early reperfusion. […]
The statistical analysis of the preliminary results, was carried out using non parametric statistics, using the median as position measurement, interquartile range as dispersion measurement and the Mann-Whitney U test to determine the statistical significance. Differences between the multiple groups was analysed by means of a Kruskal-Wallis test. […]

| SMILES | improvement of recovery of contractibility regarding the control group (Placebo) (isolated rat hearts) [%] | early cardiac function (left ventricular ejection fraction), treated versus placebo ([1]; day 6 after primary angioplasty, sodium ascorbate infusion 320 mmol/L after oral vitamin E 800 IU) | change in left ventricular ejection (difference between day 84 and day 6), treated versus placebo ([1]; difference of values 84 and six days after angioplasty, p<0.05) | left ventricular ejection fraction, higher in treated patients versus placebo ([1]; three months (day 84) after primary angioplasty, sodium ascorbate infusion 320 mmol/L after oral vitamin E 800 IU, p<0.05) [%] |
| --- | --- | --- | --- | --- |
| CC(=O)N(O)CCCCCNC(=O)CCC(=O)N(O)CCCCCNC(=O)CCC(=O)N(O)CCCCCN [deferoxamine] | 113 | – | – | – |
| O=C1O[C@H]([C@@H](O)CO)C([O-])=C1O.[Na+] [sodium ascorbate] | – | did not show any difference | significantly higher | 33 |
| CC(=O)N[C@@H](CS)C(=O)O [N-acetyl cysteine] | 189 | – | – | – |
